Consider four substances from the OligoGym collection.

HELM strings list units from the 5' end as sugar, base in round brackets, then linkage (d deoxyribose, r ribose, m 2'-O-methyl, p phosphodiester). Strings are as the collection lists them; they lack the last nucleoside at the 3' end of the tested compound. [moe] = 2'-O-(2-methoxyethyl) (MOE); [sp] = phosphorothioate linkage; [m5C] = 5-methylcytosine

The target of this data set is HTT. In words: mouse, dose not given. The settings on record: ASO.
As for “RNA1{[moe]([m5C])[sp].[moe](A)p.[moe]([m5C])p.[moe](A)p.[moe](G)p.[moe]([m5C])p.d(T)[sp].d(T)[sp].d(T)[sp].d(T)[sp].d(A)[sp].d(T)[sp].d(T)[sp].d(T)[sp].d([m5C])[sp].d([m5C])[sp].[moe](A)p.[moe](T)[sp].[moe](A)}$$$$ (last 3' nucleoside missing)”, the 3 h FOB score is 0 score 0-7.
In the case of “RNA1{[moe]([m5C])[sp].[moe](A)p.[moe]([m5C])p.[moe](T)p.[moe]([m5C])[sp].d(A)[sp].d(T)[sp].d(T)[sp].d(T)[sp].d([m5C])[sp].d([m5C])[sp].d(A)[sp].d([m5C])[sp].d([m5C])[sp].d(T)[sp].[moe](T)p.[moe]([m5C])p.[moe](A)[sp].[moe](G)}$$$$ (last 3' nucleoside missing)” it was 0 score 0-7.
Under “RNA1{[moe]([m5C])[sp].[moe](T)p.[moe](A)p.[moe](G)p.[moe](A)[sp].d(G)[sp].d(G)[sp].d(T)[sp].d([m5C])[sp].d(A)[sp].d(T)[sp].d([m5C])[sp].d(T)[sp].d(T)[sp].d([m5C])[sp].[moe](G)p.[moe](G)p.[moe](T)[sp].[moe]([m5C])}$$$$ (last 3' nucleoside missing)” stands 2 score 0-7; under “RNA1{[moe]([m5C])[sp].[moe](T)p.[moe](T)p.[moe](G)p.[moe](G)p.[moe](T)p.d(T)[sp].d(A)[sp].d(G)[sp].d(T)[sp].d(T)[sp].d(T)[sp].d(T)[sp].d([m5C])[sp].d([m5C])[sp].d(T)[sp].[moe](T)p.[moe](T)[sp].[moe](T)}$$$$ (last 3' nucleoside missing)”, 4.25 score 0-7.
